Legend:
Type in all cases: in vivo
[1] = tested on: Apera spica-venti; experiment: Test Example 5: herbicidal effect by foliage application, plastic box (symbol L); settings: 320 g/ha, 3 weeks after application
Outline: (§1)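 Visual herbicidal score, taken three weeks post-application, of seedlings sprayed on the foliage with water-diluted emulsion at a predetermined amount; plants were 14 days old, greenhouse-raised at 25° C. to 30° C.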

[2] = tested on: wheat; experiment: Test Example 5: effect on crop by foliage application, plastic box (symbol e); settings: 320 g/ha, 3 weeks after application
Outline: (§2)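 Box culture: sterile diluvial soil, seeds spot-sown, ~1.5 cm cover, raised under glass at 25–30° C.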

[3] = tested on: Galium spurium; experiment: Test Example 5: herbicidal effect by foliage application, plastic box (symbol Q); settings: 320 g/ha, 3 weeks after application
Outline: as §1

[4] = tested on: Abutilon theophrasti; experiment: Test Example 5: herbicidal effect by foliage application, plastic box (symbol M); settings: 320 g/ha, 3 weeks after application
Outline: as §1

[5] = tested on: rapeseed; experiment: Test Example 4: effect on crop by soil treatment (symbol g); settings: application herbicide amount 320 g/ha
Outline: (§3)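 Greenhouse culture at 25° C. to 30° C. followed sowing of seed in spots on sterilized diluvial soil with a soil cover close to 1.5 cm thick.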

[6] = tested on: Digitaria ciliaris; experiment: Test Example 5: herbicidal effect by foliage application, plastic box (symbol F); settings: 320 g/ha, 3 weeks after application
Outline: as §1

[7] = tested on: Echinochloa crus-galli var. crus-galli; experiment: Test Example 4: herbicidal effect by soil treatment (symbol H); settings: application herbicide amount 320 g/ha
Outline: (§4)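 Seeds were sown in sterilized diluvial soil, covered with about 1.5 cm of soil, and the soil surface was sprayed with a water-diluted emulsion of the compound at a predetermined rate. Plants grew in a greenhouse at 25° C. to 30° C.; effects were scored visually 3 weeks after application.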

[8] = tested on: Chenopodium album; experiment: Test Example 5: herbicidal effect by foliage application, plastic box (symbol O); settings: 320 g/ha, 3 weeks after application
Outline: as §1

[9] = tested on: rapeseed; experiment: Test Example 5: effect on crop by foliage application, plastic box (symbol g); settings: 320 g/ha, 3 weeks after application
Outline: as §2

[10] = tested on: directly sowed rice plant; experiment: Test Example 3: effect on crop by foliage application, Wagner pot (symbol b); settings: application herbicide amount 320 g/ha
Outline: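 Wagner pot (1/10000 are), alluvial soil, submerged 0.1–0.5 cm; sown E. crus-galli var. crus-galli, L. chinensis, C. difformis, rice; greenhouse 25–30 °C.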

[11] = tested on: beet; experiment: Test Example 4: effect on crop by soil treatment (symbol f); settings: application herbicide amount 320 g/ha
Outline: as §3

[12] = tested on: Stellaria media; experiment: Test Example 5: herbicidal effect by foliage application, plastic box (symbol P); settings: 320 g/ha, 3 weeks after application
Outline: as §1

[13] = tested on: Veronica persica; experiment: Test Example 5: herbicidal effect by foliage application, plastic box (symbol R); settings: 320 g/ha, 3 weeks after application
Outline: as §1

[14] = tested on: Lolium multiflorum Lam.; experiment: Test Example 4: herbicidal effect by soil treatment (symbol K); settings: application herbicide amount 320 g/ha
Outline: as §4

[15] = tested on: Digitaria ciliaris; experiment: Test Example 4: herbicidal effect by soil treatment (symbol F); settings: application herbicide amount 320 g/ha
Outline: as §4

[16] = tested on: Avena fatua; experiment: Test Example 4: herbicidal effect by soil treatment (symbol I); settings: application herbicide amount 320 g/ha
Outline: as §4

[17] = tested on: Lolium multiflorum Lam.; experiment: Test Example 5: herbicidal effect by foliage application, plastic box (symbol K); settings: 320 g/ha, 3 weeks after application
Outline: as §1

[18] = tested on: Apera spica-venti; experiment: Test Example 4: herbicidal effect by soil treatment (symbol L); settings: application herbicide amount 320 g/ha
Outline: as §4

[19] = tested on: Alopecurus myosuroides; experiment: Test Example 4: herbicidal effect by soil treatment (symbol J); settings: application herbicide amount 320 g/ha
Outline: as §4

[20] = tested on: Monochoria vaginalis; experiment: Test Example 2: herbicidal activity, application during weed generation in submerged conditions (symbol C); settings: Table 23; application herbicide amount 320 g/ha; grade 0-5 by criteria of Test Example 1
Outline: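 Steps: fill pots with alluvial soil; add water to 4 cm depth; co-sow the three weeds; grow at 25° C. to 30° C. under glass; at 1–2 leaves, dose the floodwater with diluted emulsion; rate damage visually after 3 weeks.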

[21] = tested on: rice; experiment: Test Example 4: effect on crop by soil treatment (symbol b); settings: application herbicide amount 320 g/ha
Outline: as §3

[22] = tested on: Avena fatua; experiment: Test Example 5: herbicidal effect by foliage application, plastic box (symbol I); settings: 320 g/ha, 3 weeks after application
Outline: as §1

[23] = tested on: Amaranthus retroflexus; experiment: Test Example 5: herbicidal effect by foliage application, plastic box (symbol N); settings: 320 g/ha, 3 weeks after application
Outline: as §1

Structure (SMILES)	g: rapeseed, effect on crop grade [5]	H: Echinochloa crus-galli var. crus-galli, herbicidal effect grade [7]	effect on crop b (directly sowed rice plant), grade 0-5 [10]	f: beet, effect on crop grade [11]	K: Lolium multiflorum Lam., herbicidal effect grade [14]	F: Digitaria ciliaris, herbicidal effect grade [15]	I: Avena fatua, herbicidal effect grade [16]	L: Apera spica-venti, herbicidal effect grade [18]	J: Alopecurus myosuroides, herbicidal effect grade [19]	Herbicidal effect grade, C: Monochoria vaginalis [20]	b: directly sowed rice plant, effect on crop grade [21]	L: Apera spica-venti, herbicidal effect (criteria of Test Example 1) [1]	e: wheat, effect on crop (criteria of Test Example 1) [2]	Q: Galium spurium, herbicidal effect (criteria of Test Example 1) [3]	M: Abutilon theophrasti, herbicidal effect (criteria of Test Example 1) [4]	F: Digitaria ciliaris, herbicidal effect (criteria of Test Example 1) [6]	O: Chenopodium album, herbicidal effect (criteria of Test Example 1) [8]	g: rapeseed, effect on crop (criteria of Test Example 1) [9]	P: Stellaria media, herbicidal effect (criteria of Test Example 1) [12]	R: Veronica persica, herbicidal effect (criteria of Test Example 1) [13]	further results
CON=C(C)CC1CC(O)=C(c2c(C)cc(C3CC3)cc2C)C1=O (stereo not drawn) [6-050]	2 (Herbicidal ratio of 20% or higher and lower than 40%)	4 (Herbicidal ratio of 70% or higher and lower than 90%)	5 (Herbicidal ratio of 90% or more (almost completely withered))	0 (Herbicidal ratio of 5% or lower (almost no effect))	5 (Herbicidal ratio of 90% or more (almost completely withered))	5 (Herbicidal ratio of 90% or more (almost completely withered))	2 (Herbicidal ratio of 20% or higher and lower than 40%)	0 (Herbicidal ratio of 5% or lower (almost no effect))	4 (Herbicidal ratio of 70% or higher and lower than 90%)	0 (Herbicidal ratio of 5% or lower (almost no effect))	5 (Herbicidal ratio of 90% or more (almost completely withered))										L: Apera spica-venti, herbicidal effect grade [1]: 4 (Herbicidal ratio of 70% or higher and lower than 90%); e: wheat, effect on crop grade [2]: 0 (Herbicidal ratio of 5% or lower (almost no effect)); Q: Galium spurium, herbicidal effect grade [3]: 3 (Herbicidal ratio of 40% or higher and lower than 70%); M: Abutilon theophrasti, herbicidal effect grade [4]: 0 (Herbicidal ratio of 5% or lower (almost no effect)); F: Digitaria ciliaris, herbicidal effect grade [6]: 4 (Herbicidal ratio of 70% or higher and lower than 90%); O: Chenopodium album, herbicidal effect grade [8]: 3 (Herbicidal ratio of 40% or higher and lower than 70%); g: rapeseed, effect on crop grade [9]: 5 (Herbicidal ratio of 90% or more (almost completely withered)); P: Stellaria media, herbicidal effect grade [12]: 3 (Herbicidal ratio of 40% or higher and lower than 70%); R: Veronica persica, herbicidal effect grade [13]: 2 (Herbicidal ratio of 20% or higher and lower than 40%); K: Lolium multiflorum Lam., herbicidal effect grade [17]: 5 (Herbicidal ratio of 90% or more (almost completely withered)); I: Avena fatua, herbicidal effect grade [22]: 2 (Herbicidal ratio of 20% or higher and lower than 40%); N: Amaranthus retroflexus, herbicidal effect grade [23]: 0 (Herbicidal ratio of 5% or lower (almost no effect))
CON=C(C)CC1CC(O)=C(c2c(C)cc(-c3ncccn3)cc2C)C1=O (mixture of isomers) [6-057]	1 (Herbicidal ratio of 5% or higher and lower than 20%)	5 (Herbicidal ratio of 90% or more (almost completely withered))	5 (Herbicidal ratio of 90% or more (almost completely withered))	0 (Herbicidal ratio of 5% or lower (almost no effect))	5 (Herbicidal ratio of 90% or more (almost completely withered))	5 (Herbicidal ratio of 90% or more (almost completely withered))	0 (Herbicidal ratio of 5% or lower (almost no effect))	4 (Herbicidal ratio of 70% or higher and lower than 90%)	3 (Herbicidal ratio of 40% or higher and lower than 70%)	0 (Herbicidal ratio of 5% or lower (almost no effect))	5 (Herbicidal ratio of 90% or more (almost completely withered))	5 (Herbicidal ratio of 90% or more (almost completely withered))	5 (Herbicidal ratio of 90% or more (almost completely withered))	3 (Herbicidal ratio of 40% or higher and lower than 70%)	1 (Herbicidal ratio of 5% or higher and lower than 20%)	5 (Herbicidal ratio of 90% or more (almost completely withered))	4 (Herbicidal ratio of 70% or higher and lower than 90%)	5 (Herbicidal ratio of 90% or more (almost completely withered))	4 (Herbicidal ratio of 70% or higher and lower than 90%)	4 (Herbicidal ratio of 70% or higher and lower than 90%)	K: Lolium multiflorum Lam., herbicidal effect (criteria of Test Example 1) [17]: 5 (Herbicidal ratio of 90% or more (almost completely withered)); I: Avena fatua, herbicidal effect (criteria of Test Example 1) [22]: 5 (Herbicidal ratio of 90% or more (almost completely withered)); N: Amaranthus retroflexus, herbicidal effect (criteria of Test Example 1) [23]: 1 (Herbicidal ratio of 5% or higher and lower than 20%)
CON=C(C)CC1CC(O)=C(c2c(C)cc(-c3ccc(Cl)cc3)cc2OC)C1=O (stereo not drawn) [6-077, 2-(4′-chloro-3-methoxy-5-methyl-[1,1′-biphenyl]-4-yl)-3-hydroxy-5-{2-(methoxyimino)propyl}cyclopent-2-enone]	4 (Herbicidal ratio of 70% or higher and lower than 90%)	5 (Herbicidal ratio of 90% or more (almost completely withered))	5 (Herbicidal ratio of 90% or more (almost completely withered))	1 (Herbicidal ratio of 5% or higher and lower than 20%)	5 (Herbicidal ratio of 90% or more (almost completely withered))	5 (Herbicidal ratio of 90% or more (almost completely withered))	4 (Herbicidal ratio of 70% or higher and lower than 90%)	5 (Herbicidal ratio of 90% or more (almost completely withered))	5 (Herbicidal ratio of 90% or more (almost completely withered))	3 (Herbicidal ratio of 40% or higher and lower than 70%)	5 (Herbicidal ratio of 90% or more (almost completely withered))	5 (Herbicidal ratio of 90% or more (almost completely withered))	5 (Herbicidal ratio of 90% or more (almost completely withered))	4 (Herbicidal ratio of 70% or higher and lower than 90%)	5 (Herbicidal ratio of 90% or more (almost completely withered))	5 (Herbicidal ratio of 90% or more (almost completely withered))	4 (Herbicidal ratio of 70% or higher and lower than 90%)	5 (Herbicidal ratio of 90% or more (almost completely withered))	4 (Herbicidal ratio of 70% or higher and lower than 90%)	4 (Herbicidal ratio of 70% or higher and lower than 90%)	K: Lolium multiflorum Lam., herbicidal effect (criteria of Test Example 1) [17]: 5 (Herbicidal ratio of 90% or more (almost completely withered)); I: Avena fatua, herbicidal effect (criteria of Test Example 1) [22]: 5 (Herbicidal ratio of 90% or more (almost completely withered)); N: Amaranthus retroflexus, herbicidal effect (criteria of Test Example 1) [23]: 1 (Herbicidal ratio of 5% or higher and lower than 20%)
